In patent US9777003B2, “Tricyclic heterocycles as bet protein inhibitors” (Incyte Corporation, priority 2013, dated 2017):
pIC50: −log10 of the molar value. Where a name gives a salt, the structure may show the parent alone.

Key:
BRD4-BD1 = BRD4-BD1 (Homo sapiens (Human), UniProt O60885); test: BRD4 AlphaScreen assay, BRD4-BD1; type: binding; details: biotin-labeled tetra-acetylated histone H4 peptide, 75 min, room temperature, read-out: BRD4 BD-1 enzyme IC50
How it was run: (§1)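 Bromodomain–H4Ac4 peptide (50 nM) proximity assay; BD1 at 3.8 nM, BD2 at 20 nM. Reaction 75 min RT, bead detection 75 min in the dark, IC50 by dose-response fit.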

BRD4-BD2 = BRD4-BD2 (Homo sapiens (Human), UniProt O60885); test: BRD4 AlphaScreen assay, BRD4-BD2; type: binding; details: biotin-labeled tetra-acetylated histone H4 peptide, 75 min, room temperature, read-out: BRD4 BD-2 enzyme IC50
How it was run: as §1

| Structure (SMILES) | pIC50 (BRD4-BD1) | pIC50 (BRD4-BD2) |
| --- | --- | --- |
| Cc1nnc2ccc3c(cc(-c4ccn(CCCO)n4)n3Cc3cccc(Cl)c3)n12 [Example 173, 3-{3-[6-(3-Chlorobenzyl)-1-methyl-6H-pyrrolo[2,3-e][1,2,4]triazolo[4,3-a]pyridin-7-yl]-1H-pyrazol-1-yl}propan-1-ol Trifluoroacetate Salt] | ≥ 7.00 | ≥ 7.00 |
| CNC(=O)CCn1ccc(-c2cc3c(ccc4nnc(C)n43)n2Cc2cccc(Cl)c2)n1 [Example 174, 3-{3-[6-(3-Chlorobenzyl)-1-methyl-6H-pyrrolo[2,3-e][1,2,4]triazolo[4,3-a]pyridin-7-yl]-1H-pyrazol-1-yl}-N-methylpropanamide Trifluoroacetate Salt] | ≥ 7.00 | ≥ 7.00 |
| CCNC(=O)CCn1ccc(-c2cc3c(ccc4nnc(C)n43)n2Cc2cccc(Cl)c2)n1 [Example 175, 3-{3-[6-(3-Chlorobenzyl)-1-methyl-6H-pyrrolo[2,3-e][1,2,4]triazolo[4,3-a]pyridin-7-yl]-1H-pyrazol-1-yl}-N-ethylpropanamide Trifluoroacetate Salt] | ≥ 7.00 | ≥ 7.00 |
| Cc1nnc2ccc3c(cc(-c4ccn(CCC(=O)NC(C)(C)C)n4)n3Cc3cccc(Cl)c3)n12 [Example 176, N-(tert-Butyl)-3-{3-[6-(3-chlorobenzyl)-1-methyl-6H-pyrrolo[2,3-e][1,2,4]triazolo[4,3-a]pyridin-7-yl]-1H-pyrazol-1-yl}propanamide Trifluoroacetate Salt] | ≥ 7.00 | ≥ 7.00 |
| Cc1nnc2ccc3c(cc(-c4ccn(C5COC5)n4)n3Cc3cccc(Cl)c3)n12 [Example 177, 6-(3-Chlorobenzyl)-1-methyl-7-(1-oxetan-3-yl-1H-pyrazol-3-yl)-6H-pyrrolo[2,3-e][1,2,4]triazolo[4,3-a]pyridine Trifluoroacetate Salt] | ≥ 7.00 | ≥ 7.00 |
| Cc1nnc2ccc3c(cc(-c4ccn(CCO)n4)n3Cc3cccc(Cl)c3)n12 [Example 178, 2-{3-[6-(3-Chlorobenzyl)-1-methyl-6H-pyrrolo[2,3-e][1,2,4]triazolo[4,3-a]pyridin-7-yl]-1H-pyrazol-1-yl}ethanol Trifluoroacetate Salt] | ≥ 7.00 | ≥ 7.00 |
| Cc1nnc2ccc3c(cc(-c4ccn(C5CN(CCO)C5)n4)n3Cc3cccc(Cl)c3)n12 [Example 179, 2-(3-{3-[6-(3-Chlorobenzyl)-1-methyl-6H-pyrrolo[2,3-e][1,2,4]triazolo[4,3-a]pyridin-7-yl]-1H-pyrazol-1-yl}azetidin-1-yl)ethanol bis(trifluoroacetate) Salt] | ≥ 7.00 | ≥ 7.00 |
| Cc1nnc2ccc3c(cc(-c4ccn(C5CN(CCC#N)C5)n4)n3Cc3cccc(Cl)c3)n12 [Example 181, 3-(3-{3-[6-(3-Chlorobenzyl)-1-methyl-6H-pyrrolo[2,3-e][1,2,4]triazolo[4,3-a]pyridin-7-yl]-1H-pyrazol-1-yl}azetidin-1-yl)propanenitrile bis(trifluoroacetate) Salt] | ≥ 7.00 | ≥ 7.00 |
| Cc1nnc2ccc3c(cc(-c4ccn(CCC#N)n4)n3Cc3cccc(CN4CCC4)c3)n12 [Example 183, 3-(3-{6-[3-(Azetidin-1-ylmethyl)benzyl]-1-methyl-6H-pyrrolo[2,3-e][1,2,4]triazolo[4,3-a]pyridin-7-yl}-1H-pyrazol-1-yl)propanenitrile bis(trifluoroacetate) Salt] | ≥ 7.00 | ≥ 7.00 |
| Cc1nnc2ccc3c(cc(-c4ccn(C)n4)n3Cc3cc(Cl)cc(CN4CCC4)c3)n12 [Example 185, 6-[3-(Azetidin-1-ylmethyl)-5-chlorobenzyl]-1-methyl-7-(1-methyl-1H-pyrazol-3-yl)-6H-pyrrolo[2,3-e][1,2,4]triazolo[4,3-a]pyridine tris(trifluoroacetate) Salt] | ≥ 7.00 | ≥ 7.00 |
| CCn1ccc(-c2cc3c(ccc4nnc(C)n43)n2Cc2cc(Cl)cc(CN3CCC3)c2)n1 [Example 188, 6-(3-(Azetidin-1-ylmethyl)-5-chlorobenzyl)-7-(1-ethyl-1H-pyrazol-3-yl)-1-methyl-6H-pyrrolo[2,3-e][1,2,4]triazolo[4,3-a]pyridine tris(trifluoroacetate) Salt] | ≥ 7.00 | ≥ 7.00 |
| CCn1ccc(-c2cc3c(ccc4nnc(C)n43)n2Cc2cc(Cl)cc(CN3CCCC3)c2)n1 [Example 189, 6-(3-Chloro-5-(pyrrolidin-1-ylmethyl)benzyl)-7-(1-ethyl-1H-pyrazol-3-yl)-1-methyl-6H-pyrrolo[2,3-e][1,2,4]triazolo[4,3-a]pyridine tris(trifluoroacetate) Salt] | ≥ 7.00 | ≥ 7.00 |
| Cc1nnc2ccc3c(cc(-c4ccn(C)n4)n3Cc3cc(Cl)cc(CN4CCCC4)c3)n12 [Example 190, 6-[3-Chloro-5-(pyrrolidin-1-ylmethyl)benzyl]-1-methyl-7-(1-methyl-1H-pyrazol-3-yl)-6H-pyrrolo[2,3-e][1,2,4]triazolo[4,3-a]pyridine bis(trifluoroacetate) Salt] | ≥ 7.00 | ≥ 7.00 |
| Cc1nnc2ccc3c(cc(-c4ccn(C)n4)n3Cc3cc(Cl)cc(CN4CCOCC4)c3)n12 [Example 192, 6-[3-Chloro-5-(morpholin-4-ylmethyl)benzyl]-1-methyl-7-(1-methyl-1H-pyrazol-3-yl)-6H-pyrrolo[2,3-e][1,2,4]triazolo[4,3-a]pyridine bis(trifluoroacetate) Salt] | ≥ 7.00 | ≥ 7.00 |
| Cc1nnc2ccc3c(cc(C4=NCCO4)n3Cc3cccc(Cl)c3)n12 [Example 193, 6-(3-Chlorobenzyl)-7-(4,5-dihydro-1,3-oxazol-2-yl)-1-methyl-6H-pyrrolo[2,3-e][1,2,4]triazolo[4,3-a]pyridine] | ≥ 7.00 | ≥ 7.00 |
| Cc1nnc2ccc3c(cc(-c4ncco4)n3Cc3cccc(Cl)c3)n12 [Example 194, 6-(3-Chlorobenzyl)-1-methyl-7-(1,3-oxazol-2-yl)-6H-pyrrolo[2,3-e][1,2,4]triazolo[4,3-a]pyridine Trifluoroacetate Salt] | ≥ 7.00 | ≥ 7.00 |
| Cc1nnc2ccc3c(cc(-c4ncco4)n3Cc3cc(Cl)cc(CN4CC(C)(C)C4)c3)n12 [Example 196, 6-{3-Chloro-5-[(3,3-dimethylazetidin-1-yl)methyl]benzyl}-1-methyl-7-(1,3-oxazol-2-yl)-6H-pyrrolo[2,3-e][1,2,4]triazolo[4,3-a]pyridine bis(trifluoroacetate) Salt] | ≥ 7.00 | ≥ 7.00 |
| Cc1nnc2ccc3c(cc(-c4ncco4)n3Cc3cc(Cl)cc(CN4CCCC4)c3)n12 [Example 197, 6-[3-Chloro-5-(pyrrolidin-1-ylmethyl)benzyl]-1-methyl-7-(1,3-oxazol-2-yl)-6H-pyrrolo[2,3-e][1,2,4]triazolo[4,3-a]pyridine bis(trifluoroacetate) Salt] | ≥ 7.00 | ≥ 7.00 |
| Cc1nnc2ccc3c(cc(-c4ncco4)n3Cc3cc(Cl)cc(CN4CC(O)C4)c3)n12 [Example 198, 1-(3-Chloro-5-{[1-methyl-7-(1,3-oxazol-2-yl)-6H-pyrrolo[2,3-e][1,2,4]triazolo[4,3-a]pyridin-6-yl]methyl}benzyl)azetidin-3-ol bis(trifluoroacetate) Salt] | ≥ 7.00 | ≥ 7.00 |
| Cc1cc2c(cc(Nc3cc[nH]n3)c3nnc(C)n32)n1Cc1ccccc1 [Example 200, 6-Benzyl-1,7-dimethyl-N-1H-pyrazol-3-yl-6H-pyrrolo[2,3-e][1,2,4]triazolo[4,3-a]pyridin-4-amine tris(trifluoroacetate) Salt] | ≥ 7.00 | ≥ 7.00 |
| Cc1cc2c(cc(Nc3ncccn3)c3nnc(C)n32)n1Cc1ccccc1 [Example 201, 6-Benzyl-1,7-dimethyl-N-pyrimidin-2-yl-6H-pyrrolo[2,3-e][1,2,4]triazolo[4,3-a]pyridin-4-amine tris(trifluoroacetate) Salt] | ≥ 7.00 | ≥ 7.00 |
| Cc1cc2c(cc(Nc3ccn(C)n3)c3nnc(C)n32)n1Cc1ccccc1 [Example 202, 6-Benzyl-1,7-dimethyl-N-(1-methyl-1H-pyrazol-3-yl)-6H-pyrrolo[2,3-e][1,2,4]triazolo[4,3-a]pyridin-4-amine tris(trifluoroacetate) Salt] | ≥ 7.00 | ≥ 7.00 |
| Cc1cc2c(cc(O)c3nnc(C)n32)n1Cc1ccccc1 [Example 204, 6-Benzyl-1,7-dimethyl-6H-pyrrolo[2,3-e][1,2,4]triazolo[4,3-a]pyridin-4-ol Trifluoroacetate Salt] | ≥ 7.00 | ≥ 7.00 |
| Cc1cc2c(cc(NC3CCNCC3)c3nnc(C)n32)n1Cc1ccccc1 [Example 206, 6-Benzyl-1,7-dimethyl-N-piperidin-4-yl-6H-pyrrolo[2,3-e][1,2,4]triazolo[4,3-a]pyridin-4-amine] | ≥ 7.00 | ≥ 7.00 |
| Cc1cc2c(cc(NC3CCN(C)CC3)c3nnc(C)n32)n1Cc1ccccc1 [Example 207, 6-Benzyl-1,7-dimethyl-N-(1-methylpiperidin-4-yl)-6H-pyrrolo[2,3-e][1,2,4]triazolo[4,3-a]pyridin-4-amine] | ≥ 7.00 | ≥ 7.00 |
| Cc1cc2c(cc(NCCN3CCOCC3)c3nnc(C)n32)n1Cc1ccccc1 [Example 208, 6-Benzyl-1,7-dimethyl-N-(2-morpholin-4-ylethyl)-6H-pyrrolo[2,3-e][1,2,4]triazolo[4,3-a]pyridin-4-amine] | ≥ 7.00 | ≥ 7.00 |
| COCCNc1cc2c(cc(C)n2Cc2ccccc2)n2c(C)nnc12 [Example 209, 6-Benzyl-N-(2-methoxyethyl)-1,7-dimethyl-6H-pyrrolo[2,3-e][1,2,4]triazolo[4,3-a]pyridin-4-amine] | ≥ 7.00 | ≥ 7.00 |
| Cc1cc2c(cc(NCCO)c3nnc(C)n32)n1Cc1ccccc1 [Example 210, 2-[(6-Benzyl-1,7-dimethyl-6H-pyrrolo[2,3-e][1,2,4]triazolo[4,3-a]pyridin-4-yl)amino]ethanol] | ≥ 7.00 | ≥ 7.00 |
